Values joined by “and” are separate entries in the source; they are usually repeats but may differ in a detail not shown here. Identical values can stand only once. Like-named read-outs stand apart in the source and are kept apart here.
Tests used:
[1] = tested on: Pyricularia oryzae; format: in vivo; settings: individual active compound, rice 'Tai-Nong 67', protective, 6 days, untreated control 60% infection
[2] = tested on: Cochliobolus miyabeanus; test: Activity against brown spot of rice caused by Cochliobolus miyabeanus, protective application; format: in vivo

CC1CCN(c2c(-c3c(F)cccc3Cl)c(Cl)nc3ncnn23)CC1 [Comparison A]
Efficacy in % of the untreated control ([1]; 16 ppm in the spray liquor): 59%

C[C@H](Nc1c(-c2c(F)cc(F)cc2F)c(Cl)nc2ncnn12)C(F)(F)F [Comparison B]
Efficacy in % of the untreated control ([1]; 16 ppm in the spray liquor): 67%

CC1CCN(c2c(-c3c(F)cc(F)cc3F)c(Cl)nc3ncnn23)CC1 [I, 5-chloro-7-(4-methylpiperidin-1-yl)-6-(2,4,6-trifluorophenyl)-[1,2,4]triazolo[1,5-a]pyrimidine]
Efficacy in % of the untreated control ([1]; 16 ppm in the spray liquor): 67%
Efficacy in % of the untreated control ([2]; individual active compound, 4 ppm in the spray liquor, rice 'Tai-Nong 67', protective, six days, untreated control 90% infection): 33%
Efficacy in % of the untreated control ([2]; individual active compound, 16 ppm in the spray liquor, rice 'Tai-Nong 67', protective, six days, untreated control 90% infection): 33% and 56%

CO/N=C(/C(=O)OC)c1ccccc1CO/N=C(\C)c1cccc(C(F)(F)F)c1 [II (trifloxystrobin), methyl (E)-methoxyimino-{(E)-α-[1-(α,α,α-trifluoro-m-tolyl)ethylideneaminooxy]o-tolyl}acetate]
Efficacy in % of the untreated control ([1]; 4 ppm in the spray liquor): 2%
Efficacy in % of the untreated control ([1]; 16 ppm in the spray liquor): 2%
Efficacy in % of the untreated control ([2]; in vivo): 0%
